Experimental findings from paper PMC11292009, “Mapping protein binding sites by photoreactive fragment pharmacophores” (Communications Chemistry, 2024) are described below.

Experiment [1] has as its system carbonic anhydrase II (CA). The experiment in a line: Intact protein MS photoaffinity labeling screen, carbonic anhydrase. In kind it is binding. The note with it: intact protein MS after 10 min irradiation. A digest of the protocol:
(§1)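 Plate format, one fragment/well; 15 min incubation with protein for non-covalent complex formation; direct intact-protein MS read from plate; labeling % from adduct mass additions.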

A further experiment concerns T1, BRD4-BD1.
T1 construct: screened the PhP library against the first bromodomain of BRD4 (BRD4-BD1); purchased GSK/GenScript
Kind of experiment: Intact MS photoaffinity labeling screen, BRD4-BD1 (302 nm, LCMS-TOF). The note with it: sheet PhP, experimental hit status flag given as 0 or 1. In kind it is binding. The method in brief:
(§2)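 Labeling detected as mass additions in deconvoluted intact-protein LCMS-TOF spectra. Protein at 1 μM in PBS was first mixed with one fragment per well on ice for 15 min, followed by 10 min UV exposure at 302 nm.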

The next experiment concerns T2, KRas^G12D.
T2 construct: purchased GSK/GenScript
The experiment in a line: Intact MS photoaffinity labeling screen, KRas G12D (302 nm, LCMS-TOF). The format is binding. A digest of the protocol: as §2

For another experiment, the system named is lysozyme (Lyo). Kind of experiment: Intact protein MS photoaffinity labeling screen, lysozyme. In kind it is binding. The note with it: intact protein MS after 10 min irradiation. A digest of the protocol:
as §1

In another experiment the test system is myoglobin (Myo). Kind of experiment: Intact protein MS photoaffinity labeling screen, myoglobin. In kind it is binding. The note with it: intact protein MS after 10 min irradiation. A digest of the protocol: as §1
Experiment [2] concerns T3, STAT5B-NTD.
T3 construct: His-SUMO (N, cleaved yes); made in house; host or cells: E. coli BL21 RILP
The experiment in a line: Intact MS photoaffinity labeling screen, STAT5B-NTD (365 nm, UHPLC-MS).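 On MS labeling percentage, STAT5B: 0.17 µL of 100 mM DMSO fragment stock added to the protein sample.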 The format is binding. A digest of the protocol:
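Intact-protein labeling detected by UHPLC-MS in positive ion mode over m/z 100–2000. Samples were first photo-crosslinked at 365 nm for 10 min at 4 °C. Before irradiation, 7 µM STAT5B in PBS pH 7.4 was pre-incubated with probe for 1 h in the dark at room temperature.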

Experiment [3] deals with T3, STAT5B-NTD. Kind of experiment: Intact MS labeling screen, STAT5B-NTD conjugated with photocatalyst Ir-G2-PEG3-COOH (450 nm).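 Further: 0.14 µL of 100 mM DMSO fragment stock added to the conjugate.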 The note with it: 450 nm 10 min. The format is binding. A digest of the protocol:
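Ir-G2-PEG3-COOH photocatalyst (10 eq) activated 30 min with EDC/NHS/BOP, then conjugated to STAT5B-NTD (7 µM) overnight at RT or 1 h at 37 °C in dark. PhP added, 1 h dark, then 450 nm irradiation 10 min at 4 °C; labeling read by intact LC-MS, positive ion mode, m/z 100–2000.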

In experiment [4] the test system is T4, Kras G12D protein / SOS1 exchange domain.
T4 construct: Cytoskeleton, Inc. (SOS1 exchange domain only) GE02
Kind of experiment: Kras-SOS exchange assay (MANT-GDP). The format is biochemical. How it is done: MANT-GDP loading assay: Kras^G12D protein was first buffer exchanged into low magnesium buffer (20 mM HEPES-NaOH (pH 7.5), 50 mM NaCl, 0.5 mM MgCl2) using a NAP5 column (catalog no.: 17-0583-1, Cytiva). The proteins were then incubated with 20-fold molar excess of N-methylanthraniloyl (MANT)-GDP (catalog no.: 69244, Sigma-Aldrich) in loading buffer (50 mM NaCl, 20 mM HEPES-NaOH [pH 7.5], 0.5 mM MgCl2, 10 mM EDTA, and 1 mM Dithiothreitol (DTT)) in a total volume of 200 μL at 20 °C for 90 min. The reaction was stopped by adding MgCl2 to a final concentration of 10 mM, then incubated at 20 °C for 30 min. The unbound MANT-GDP was removed using the NAP-5 column equilibrated with nucleotide exchange buffer (40 mM HEPES-NaOH (pH 7.5), 50 mM NaCl, 10 mM MgCl2, 2 mM DTT).
MANT-GDP exchange assay: First the MANT-GDP bound Kras G12D protein (in a final 1 μM molar concentration) was preincubated with the inhibitor molecules for 60 min. After the preincubation the samples were exposed to UV light for 10 min with a wavelength of 366 nm. The UV-treated MANT-GDP Kras-inhibitor mix was loaded into a black 384 well microplate. The nucleotide exchange reaction was initiated by adding 100 fold molar excess of GppNHp (catalog no.: G0635, Sigma-Aldrich), a non-hydrolyzable GTP analog and the SOS1 exchange domain (catalog no.: GE02, Cytoskeleton, Inc.) protein in 0.5 μM final concentration. The change in fluorescence intensity was measured every 30 s in room temperature for 60 min on an EnSpire plate reader (PerkinElmer, Inc.). The measured fluorescence values were fitted to a single exponential function by using GraphPad Prism 8 software.

Experiment [5] has as its system CA, Lyo, Myo, BRD4-BD1, KRas G12D, STAT5B-NTD. The experiment in a line: Intact MS labeling compared over all protein targets. The format is binding. The note with it: of the six protein targets. As for the experimental part:
Using a plate-based format with one fragment per well, each fragment was incubated with the target proteins for 15 min to allow for the formation of non-covalent interactions. The plate was then irradiated at 302 or 365 nm for 10 min to enable the bound fragments to crosslink to the protein[26]. Finally, the results were directly analyzed from the plate using intact protein mass spectrometry by observing the mass additions that correspond to successful labeling (Fig. 2c, for labeling % values see Supplementary data). The library was first characterized against three benchmark proteins like carbonic anhydrase (CA), lysozyme (Lyo), and myoglobin (Myo).
The PhP library was screened against BRD4-BD1 and KRas^G12D as follows. Using a Labcyte Echo® 555 Liquid Handler, 150 nL of fragment solution (20 mM) was transferred into a Greiner 384 low-volume plate (white) to prepare the probe plate. The probe plate was placed on ice. 15 μL of protein stock solution (1 μM BRD4-BD1 (GSK/GenScript) or KRas^G12D (GSK/GenScript) in PBS buffer) was dispensed into wells containing fragments. The plate was left on ice for 15 min for incubation, then irradiated at 302 nm for 10 min, and centrifuged (1000 rpm, 1 min) to remove any bubbles. The plate was then analyzed by LCMS-TOF mass spectrometry (Agilent 1200 series liquid chromatography with Agilent Bio-HPLC PLRP-S (1000 Å, 5 µm × 50 mm × 1.0 mm, PL1312-1502) reverse phase HPLC column at 70 °C equipped with an Agilent G6224 time-of-flight (ToF), see Supplementary Note 2 for the full protocols). The deconvoluted spectra were analyzed using R Studio software.
During the analysis, the column temperature was maintained at a constant 60 °C, and a sample volume of 3 µL was injected for each analysis. Data acquisition was conducted in positive ion mode within the m/z 100–2000 (mass-to-charge ratio) range. For the full protocol and spectra of the hits, see Supplementary Note 2.

Where [6] appears, read: sheet PhP, experimental hit status flag given as 0 or 1.

For `CC1(CCC(=O)Nc2ccc(-c3ncccc3O)cc2)N=N1` [PhP060, N1=NC1(C)CCC(=O)Nc2ccc(cc2)-c3ncccc3O], the “MS labeling percentage, CA” value in [1] was 17.3%. Further, the “BRD4-BD1 (experimental hit status)” value in the experiment with BRD4-BD1 is 0. For the same compound, in the experiment with KRas^G12D (KRas G12D, 302 nm 10 min), the “MS labeling percentage, KRas” value stood at 13.7%. The “KRAS-G12D (experimental hit status)” value in the experiment on KRas^G12D (setting [6]) is 1. Also, the “MS labeling percentage, Lyo” value in the experiment with lysozyme (Lyo) was determined as 16.1%. The “MS labeling percentage, Myo” value with myoglobin (Myo) is given as 24.9%. In addition, the “MS labeling percentage, STAT5B” value in the experiment with STAT5B-NTD [2] (STAT5B-NTD, 365 nm 10 min, no photocatalyst) came out at 0%. In the experiment with STAT5B-NTD [2] (setting [6]), the “STAT5B-NTD (experimental hit status)” value amounted to 0. Moreover, the “MS labeling percentage, STAT5B+photocat” value with STAT5B-NTD [3] was 8.8%. The “Effect on SOS1-mediated nucleotide exchange of KRas” value was “no effect” in [4] (prior to irradiation) and “no effect” in [4] (upon irradiation (366 nm, 10 min)). The “Number of proteins labeled” value in experiment [5] is on record as “four”.
